Experimental findings from patent US6753442B1, “Amorphous nitric esters and their pharmaceutical compositions” (Nicox S.A., priority 1999, dated 2004) are described below.

A short description of data set [1]: Dissolution rate test in deionized water (USP XXIII apparatus, UV 235 nm). The following applies: for % of active principle passed in solution after 10 minutes: as stated in the text of the Examples; for % by weight of the active principle passed in solution: 30 mg active principle in 1000 ml deionized water, 37°C, 100 rpm. In kind it is physicochemical. How it is done:
The dissolution rate test is carried out in a dissolving equipment according to United States Pharmacopeia 23 by using a volume of deionized water of 1000 ml. The blade stirrer speed is of 100 rpm and the temperature is 37±0.5° C.
In a little glass vessel an exact amount of each sample is weighed so that it contains an amount of the active principle equal to 30 mg, which is directly introduced in the vessel containing the deionized water. At predetermined times, respectively of 5, 10, 15, 30, 45, 50, 60, 90 and 120 minutes from the beginning of the test, the amount of the nitroderivative compound passed in solution is determined, by measuring the concentration w/v (weigh/volume) thereof by UV spectrophotometry at the wave length of 235 nm, using a calibration line. The data are expressed as percentage of nitroderivative compound passed in solution in connection with the time. The amount of the compound of formula (I) passed in solution at the time of 10 minutes is at least about 10 times higher with respect to that of the nitroderivative compound not in amorphous form.
The dissolution rate of 3-(nitroxymethyl)phenyl ester of the acetylsalicylic acid as such and in the preparations containing it according to the examples described hereinafter, has been carried out in a dissolving equipment according to USP (United States Pharmacopeia) XXIII.
The test is carried out by using a volume of deionized water of 1000 ml. The angle rate of the blade stirrer is of 100 rpm and the temperature of 37±0.5° C.
In a little glass vessel an exact amount of each preparation to be tested is weighed so that it contains an amount of the active principle equal to 30 mg, which is directly introduced in the vessel. At predetermined times, respectively of 5, 10, 15, 30, 45, 50, 60, 90 and 120 minutes from the beginning of the test the amount of the compound passed in solution is determined, by measuring the concentration w/v thereof by UV spectrophotometry at the wave length of 235 nm, using a calibration line. The data are expressed as percentage of active principle passed in solution in connection with the time.

The nature of data set [2]: Crystallinity loss (amorphization degree) by DSC. In kind it is physicochemical. The following applies: result in words. As to the method: The amorphization degree can be measured by well known methods such as for example DSC, RX, IR, etc. […] The amorphization degree is determined by DSC as variation reduction) of the subtended area of the endothermic melting peak of the active principle. When the amorphization is complete, the melting peak characteristic of the active principle of formula (I) substantially disappears. This means that there is a variation of the enthalpy associated to the melting peak. The specific melting enthalpy ΔH (Joule/g) of the product as such and of the product treated with processes able to decrease the crystallinity (formulation) thereof, is determined by DSC analysis. The percent crystallinity loss is evaluated by the following equation: [formula] The scanning parameters adopted for the DSC analysis are the following: Scanning range: from 30° C. min. to 330° C. max Scanning rate: 10 K/min
(In general: DSC measures the heat that a sample takes up or gives off during a temperature scan.)

Turning to `CC(=O)Oc1ccccc1C(=O)Oc1cccc(CO[N+](=O)[O-])c1` [Example 1, 3-(nitroxymethyl)phenyl ester of the acetylsalicylic acid], the “% of active principle passed in solution after 10 minutes” value in data set [1] was determined as 0.3%. Also, the “% by weight of the active principle passed in solution” value (“% by weight” for short) in data set [1] (time 5 minutes, listed as Ex. 1) is reported as 0.1 % by weight; in data set [1] (time 10 minutes, listed as Ex. 1) it was 0.3 % by weight; in data set [1] (time 15 minutes, listed as Ex. 1) it was 0.4 % by weight; in data set [1] (time 30 minutes, listed as Ex. 1), 0.8 % by weight; in data set [1] (time 45 minutes, listed as Ex. 1), 1.2 % by weight; in data set [1] (time 60 minutes, listed as Ex. 1), 1.6 % by weight. The “% by weight” value in data set [1] (time 90 minutes, listed as Ex. 1) is given as 2.4 % by weight; in data set [1] (time 120 minutes, listed as Ex. 1) it was 3.1 % by weight. Moreover, the “crystalline state of the active principle by DSC analysis” value in data set [2] is reported as “completely crystalline”.

For the compound `CC(=O)Oc1ccccc1C(=O)Oc1cccc(CO[N+](=O)[O-])c1` [Example 7, 3-(nitroxymethyl)phenyl ester of the acetylsalicylic acid], the “% of active principle passed in solution after 10 minutes” value in data set [1] stood at 0.5%. Moreover, the “% by weight” value in data set [1] (time 0 minutes) was 0.0 % by weight; in data set [1] (time 5 minutes), 0.3 % by weight; in data set [1] (time 10 minutes), 0.5 % by weight; in data set [1] (time 15 minutes), 0.8 % by weight; in data set [1] (time 30 minutes), 1.5 % by weight; in data set [1] (time 45 minutes), 2.2 % by weight. For the same compound, the “% by weight” value in data set [1] (time 60 minutes) is on record as 2.7 % by weight; in data set [1] (time 90 minutes) it was 4.0 % by weight; in data set [1] (time 120 minutes) it was 5.2 % by weight. For the same compound, the “crystalline state of the active principle by DSC analysis” value in data set [2] is reported as “completely crystalline form”.
